Experimental data reported in US20240174695A1, “Spirocycle Containing Bicyclic Heteroaryl Compounds” (Protego Biopharma, Inc., priority 2022, published 2024).

Test system: Recombinant amyloidogenic full length light chain protein WIL-FL T46L
Assay: Differential Scanning Fluorimetry Assay (thermal shift assay); further: test concentration or dose not given here
Type: binding
Settings: Thermal Shift Protein Stability Kit (Biotium), 96-well plates; protein and compounds incubated at RT for 30 min before adding the dye
Description: Differential Scanning Fluorimetry Assay
The stabilization effects the compounds have on the immunoglobulin light chain protein were quantitively measured using a thermal shift assay. Recombinant amyloidogenic full length light chain protein WIL-FL T46L was produced in E. coli, purified, and used in the assay. The Thermal Shift Protein Stability Kit from Biotium was used and the assay was done in 96-well plates following the manufacturer's instructions. The protein and compounds were incubated at RT for 30 min before adding the dye and subjected to the thermal shift assay. The thermal stability (Tm) of each sample was then determined using standard curve fitting methods and compared to vehicle. Data are expressed as temperature shift: [Tm]compound−[Tm]vehicle.
Results • 0-0.5° C.=* • >0.5-1° C.=** • >1-1.5° C.=*** • >1.5-2.5° C.=**** • >2.5° C.=*****

Row | Compound | DSF temperature shift: [Tm]compound−[Tm]vehicle
1 | Cc1nc(N2CCC3(CC2)CN(CCc2nc4c(C)cc(OC[C@H](C)c5ccccc5)cn4n2)C(=O)N3)ns1 [Compound 124] | **** (>1.5-2.5° C.=****)
2 | CC[C@@]1(c2ccccc2)CCN(c2cc(C)c3nc(CCN4CC5(CCN(c6nccn7cncc67)CC5)NC4=O)nn3c2)C1 [Compound 7] | ***** (>2.5° C.=*****)
3 | Cc1cc(OCC2(c3ccccc3)CC2)cn2nc(C(O)CN3CC4(CCN(C(=O)Cn5cnnn5)CC4)NC3=O)nc12 (stereo not shown) [Compound 33] | **** (>1.5-2.5° C.=****)
4 | Cc1cc(N2CCC(C)(c3ccccc3)C2)cn2nc(CCN3CC4(CCN(c5nccn6ccnc56)CC4)NC3=O)nc12 (stereo not shown) [Compound 1, 8-(Imidazo[1,2-a]pyrazin-8-yl)-3-(2-(8-methyl-6-(3-methyl-3-phenylpyrrolidin-1-yl)-[1,2,4]triazolo[1,5-a]pyridin-2-yl)ethyl)-1,3,8-triazaspiro[4.5]decan-2-one] | ***** (>2.5° C.=*****)
5 | Cc1cnc(N2CCC3(CC2)CN(CCc2nc4c(C)cc(OC[C@H](C)c5ccccc5)cn4n2)C(=O)N3)s1 [Compound 129] | ***** (>2.5° C.=*****)
6 | Cc1ncc(N2CCC3(CC2)CN(CCc2nc4c(C)cc(OC[C@H](C)c5ccccc5)cn4n2)C(=O)N3)s1 [Compound 107] | **** (>1.5-2.5° C.=****)
7 | CC(=O)N1CCC(N2CCC3(CC2)CN(CC(O)c2nc4c(C)cc(OCC5(c6ccccc6)CC5)cn4n2)C(=O)N3)CC1 (stereo not shown) [Compound 15] | *** (>1-1.5° C.=***)
8 | Cc1nc(F)ccc1N1CCC2(CC1)CN(CCc1nc3c(C)cc(OC[C@H](C)c4ccccc4)cn3n1)C(=O)N2 [Compound 101] | ** (>0.5-1° C.=**)
9 | Cc1cc(OCC2(c3ccccc3)CC2)cn2nc(C(O)CN3CC4(CCN(c5ccnc(O)c5)CC4)NC3=O)nc12 (stereo not shown) [Compound 45] | ***** (>2.5° C.=*****)
10 | Cc1cc(N2CC[C@@](C)(c3ccccc3)C2)cn2nc(CCN3CC4(CCN(c5nccn6ccnc56)CC4)NC3=O)nc12 [Compound 3] | ***** (>2.5° C.=*****)
11 | Cc1cc(OCC2(c3ccccc3)CC2)cn2nc(C(O)CN3CC4(CCN(C(=O)C5(c6ccccn6)CC5)CC4)NC3=O)nc12 (stereo not shown) [Compound 29] | ***** (>2.5° C.=*****)
12 | Cc1cc(OC[C@H](C)c2ccccc2)cn2nc(CCN3CC4(CCN(c5ncc(F)cn5)C4)NC3=O)nc12 (stereo partly shown) [Compound 112] | **** (>1.5-2.5° C.=****)
13 | Cc1cc(OC[C@H](C)c2ccccc2)cn2nc(CCN3CC4(CCN(c5nccn6cncc56)CC4)NC3=O)nc12 [Compound 63] | **** (>1.5-2.5° C.=****)
14 | Cc1c(CCN2C(=O)NC3(CCN(c4nccn5ccnc45)CC3)C2=O)nc2cc(O[C@H](C)c3ccccc3)ccn12 [Compound 14, 8-(Imidazo[1,2-a]pyrazin-8-yl)-3-(2-(3-methyl-7-(1-phenylethoxy)imidazo[1,2-a]pyridin-2-yl)ethyl)-1,3,8-triazaspiro[4.5]decane-2,4-dione] | ** (>0.5-1° C.=**)
15 | Cc1cc(OC[C@H](C)c2ccccc2)cn2nc(CCN3CC4(CCN(c5ccnc(F)n5)CC4)NC3=O)nc12 [Compound 111] | **** (>1.5-2.5° C.=****)
16 | Cc1cc(N2CC[C@@](C)(c3ccccc3)C2)cn2nc(C(O)CN3CC4(CN(c5cccc(C(=O)O)n5)C4)NC3=O)nc12 (stereo partly shown) [Compound 25] | ***** (>2.5° C.=*****)
17 | C[C@@H](COc1cc(CO)c2nc(C(O)CN3CC4(CN(c5ccnc(O)c5)C4)NC3=O)nn2c1)c1ccccc1 (stereo partly shown) [Compound 144] | ***** (>2.5° C.=*****)
18 | CNC(=O)c1cc(N2CCC3(CC2)CC(=O)N(CC(C)(O)c2nc4c(C)cc(OC[C@H](C)c5ccccc5)cn4n2)C3)ccn1 (stereo partly shown) [Compound 131] | *** (>1-1.5° C.=***)
19 | Cc1cc(N2CC[C@@](C)(c3ccccc3)C2)cn2nc(C(C)(O)CN3CC4(CCN(c5ccnc(O)c5)CC4)NC3=O)nc12 (stereo partly shown) [Compound 20] | ***** (>2.5° C.=*****)
